Values quoted from earlier work, collected in patent US10487297B2, “Environmentally preferred antimicrobial compositions” (CHEMLINK LABORATORIES, LLC, priority 2013, dated 2019).

## CC(=O)N(CCN(C(C)=O)C(C)=O)C(C)=O [TAED, N,N,N′N′-tetraacetylethylenediamine]
  pKa: 8
